The source of these data is the supplement of paper PMC12076712.

Test [1] concerns the target T1, ITK (UniProt Q08881).
T1 sequence (whole entry): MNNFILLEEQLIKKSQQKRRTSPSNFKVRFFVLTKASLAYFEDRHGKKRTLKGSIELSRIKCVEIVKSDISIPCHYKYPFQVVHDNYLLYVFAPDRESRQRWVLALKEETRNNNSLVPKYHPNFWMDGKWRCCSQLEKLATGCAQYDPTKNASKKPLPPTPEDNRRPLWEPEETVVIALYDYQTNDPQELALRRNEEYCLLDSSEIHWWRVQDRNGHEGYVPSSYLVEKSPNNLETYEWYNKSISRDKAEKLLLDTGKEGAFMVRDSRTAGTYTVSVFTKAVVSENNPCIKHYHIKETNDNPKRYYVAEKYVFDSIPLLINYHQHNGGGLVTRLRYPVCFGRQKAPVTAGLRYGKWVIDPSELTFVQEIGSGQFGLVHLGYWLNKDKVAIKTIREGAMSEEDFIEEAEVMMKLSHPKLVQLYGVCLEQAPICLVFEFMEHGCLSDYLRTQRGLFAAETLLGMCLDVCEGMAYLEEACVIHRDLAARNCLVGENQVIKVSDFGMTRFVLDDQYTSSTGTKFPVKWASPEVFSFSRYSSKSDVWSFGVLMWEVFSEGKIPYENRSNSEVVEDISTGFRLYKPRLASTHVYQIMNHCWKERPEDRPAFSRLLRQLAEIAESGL
The test is described as follows: pIC50, competition of probe 3 labelling in live cells. The conditions noted are these: cell material: Jurkat cells.

For test [2], the target named is MAPK12 (UniProt P53778). The description is as above. The conditions noted are these: cell material: Jurkat cells.
Chain of MAPK12 (P53778 whole entry): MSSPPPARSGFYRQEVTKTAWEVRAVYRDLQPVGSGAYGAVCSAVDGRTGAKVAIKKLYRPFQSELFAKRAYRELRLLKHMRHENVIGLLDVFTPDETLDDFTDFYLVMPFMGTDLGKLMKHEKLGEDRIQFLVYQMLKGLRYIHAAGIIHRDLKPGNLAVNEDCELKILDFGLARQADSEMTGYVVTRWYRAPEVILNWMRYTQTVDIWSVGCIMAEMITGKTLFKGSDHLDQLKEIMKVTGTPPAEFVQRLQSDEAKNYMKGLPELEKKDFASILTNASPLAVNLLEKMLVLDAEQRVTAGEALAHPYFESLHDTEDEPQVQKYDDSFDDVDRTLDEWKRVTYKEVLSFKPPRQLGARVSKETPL
Test [3] addresses T2, NEK9 (UniProt Q8TD19).
T2 sequence (whole entry): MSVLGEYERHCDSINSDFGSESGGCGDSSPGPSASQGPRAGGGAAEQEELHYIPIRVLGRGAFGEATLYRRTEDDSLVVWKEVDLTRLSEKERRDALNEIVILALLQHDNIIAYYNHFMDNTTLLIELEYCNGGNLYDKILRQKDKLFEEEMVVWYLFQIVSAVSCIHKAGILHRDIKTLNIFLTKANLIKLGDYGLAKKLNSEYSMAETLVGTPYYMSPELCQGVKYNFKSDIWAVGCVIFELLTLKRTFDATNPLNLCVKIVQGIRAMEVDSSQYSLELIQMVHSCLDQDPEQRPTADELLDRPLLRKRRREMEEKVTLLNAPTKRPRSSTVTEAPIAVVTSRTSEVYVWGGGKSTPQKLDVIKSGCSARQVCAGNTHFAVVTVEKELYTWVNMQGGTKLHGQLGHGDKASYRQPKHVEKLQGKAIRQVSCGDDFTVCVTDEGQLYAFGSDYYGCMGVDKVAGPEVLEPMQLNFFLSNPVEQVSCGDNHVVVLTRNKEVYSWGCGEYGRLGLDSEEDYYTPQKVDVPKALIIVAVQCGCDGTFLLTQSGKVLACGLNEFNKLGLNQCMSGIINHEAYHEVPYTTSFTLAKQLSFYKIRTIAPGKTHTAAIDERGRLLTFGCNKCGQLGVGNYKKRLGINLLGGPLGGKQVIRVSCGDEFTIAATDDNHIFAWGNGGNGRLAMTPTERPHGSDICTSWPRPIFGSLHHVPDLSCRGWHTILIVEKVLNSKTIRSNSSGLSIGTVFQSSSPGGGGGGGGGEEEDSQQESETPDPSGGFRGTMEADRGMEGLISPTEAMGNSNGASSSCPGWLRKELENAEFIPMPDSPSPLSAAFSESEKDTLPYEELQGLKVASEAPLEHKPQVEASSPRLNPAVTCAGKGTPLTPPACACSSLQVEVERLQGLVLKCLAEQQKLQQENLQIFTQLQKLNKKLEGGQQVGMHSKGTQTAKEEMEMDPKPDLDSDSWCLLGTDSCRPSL
Described as above. The conditions noted are these: cell material: Jurkat cells.

In test [4] the target is STK35 (UniProt Q8TDR2). The test is described as above. The conditions noted are these: cell material: Jurkat cells.
Chain of STK35 (Q8TDR2 whole entry): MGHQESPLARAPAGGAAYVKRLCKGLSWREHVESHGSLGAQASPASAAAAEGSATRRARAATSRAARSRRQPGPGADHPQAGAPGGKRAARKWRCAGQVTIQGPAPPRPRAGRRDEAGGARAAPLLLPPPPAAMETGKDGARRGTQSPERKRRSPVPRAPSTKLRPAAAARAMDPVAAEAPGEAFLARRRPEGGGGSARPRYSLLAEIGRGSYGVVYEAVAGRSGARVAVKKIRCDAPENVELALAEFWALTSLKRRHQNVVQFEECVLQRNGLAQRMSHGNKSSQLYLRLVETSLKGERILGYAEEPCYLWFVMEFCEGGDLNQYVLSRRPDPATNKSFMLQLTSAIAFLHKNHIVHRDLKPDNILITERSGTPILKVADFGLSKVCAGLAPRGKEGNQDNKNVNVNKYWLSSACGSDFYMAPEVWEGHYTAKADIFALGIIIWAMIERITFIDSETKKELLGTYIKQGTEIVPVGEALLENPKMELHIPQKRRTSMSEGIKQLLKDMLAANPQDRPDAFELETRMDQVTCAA
Test [5] has as its target T3, BRSK1 (UniProt Q8TDC3).
T3 sequence (whole entry): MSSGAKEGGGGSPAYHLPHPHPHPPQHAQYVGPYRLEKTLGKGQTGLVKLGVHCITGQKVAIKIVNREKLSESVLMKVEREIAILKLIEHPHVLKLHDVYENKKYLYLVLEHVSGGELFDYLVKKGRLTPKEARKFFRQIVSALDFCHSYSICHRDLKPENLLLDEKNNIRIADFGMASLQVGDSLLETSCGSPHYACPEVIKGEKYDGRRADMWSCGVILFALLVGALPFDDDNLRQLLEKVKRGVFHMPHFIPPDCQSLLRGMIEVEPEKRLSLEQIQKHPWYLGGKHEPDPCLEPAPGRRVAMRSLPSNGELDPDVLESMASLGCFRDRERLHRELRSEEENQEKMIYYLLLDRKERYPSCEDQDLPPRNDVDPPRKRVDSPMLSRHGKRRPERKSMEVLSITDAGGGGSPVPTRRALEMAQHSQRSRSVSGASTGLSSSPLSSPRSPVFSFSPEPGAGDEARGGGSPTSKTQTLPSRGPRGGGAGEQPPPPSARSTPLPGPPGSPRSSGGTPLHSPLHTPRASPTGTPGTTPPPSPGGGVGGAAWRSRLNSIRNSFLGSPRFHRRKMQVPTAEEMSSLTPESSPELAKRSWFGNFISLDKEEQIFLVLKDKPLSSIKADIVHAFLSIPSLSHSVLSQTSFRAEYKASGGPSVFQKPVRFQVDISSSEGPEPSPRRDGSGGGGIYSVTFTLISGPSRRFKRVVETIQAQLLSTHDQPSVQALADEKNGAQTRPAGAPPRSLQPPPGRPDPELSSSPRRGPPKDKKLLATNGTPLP
The test is described as follows: pIC50, kinobeads binding competition. The method, boiled down: (§1)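 Nine compound concentrations were tested, starting at 30 μM in 1:4 steps on live Jurkat cells (60 min, 37 °C, then lysis) or in 1:5 steps on Jurkat lysate or a 1:1:1:1 HEK293/K-562/HepG2/placenta lysate mix (60 min, 4 °C). Kinobeads-bound proteins were digested and quantified with TMT10 LC-MS/MS. pIC50 values are from logistic dose-response fits in the R drc package of fold changes relative to vehicle, from biological duplicates.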

Test [6] addresses PIK3R4 (UniProt Q99570). The test is described as follows: pIC50, kinobeads binding competition. The conditions noted are these: cell material: Jurkat cells. The gist of the method: as §1
Test [7] has as its target UniProt O00506. As to the kind of experiment: pIC50, kinobeads binding competition. The method, boiled down: as §1

Some results are limits rather than exact numbers.

Chain of UniProt O00506 (O00506 whole entry, looked up): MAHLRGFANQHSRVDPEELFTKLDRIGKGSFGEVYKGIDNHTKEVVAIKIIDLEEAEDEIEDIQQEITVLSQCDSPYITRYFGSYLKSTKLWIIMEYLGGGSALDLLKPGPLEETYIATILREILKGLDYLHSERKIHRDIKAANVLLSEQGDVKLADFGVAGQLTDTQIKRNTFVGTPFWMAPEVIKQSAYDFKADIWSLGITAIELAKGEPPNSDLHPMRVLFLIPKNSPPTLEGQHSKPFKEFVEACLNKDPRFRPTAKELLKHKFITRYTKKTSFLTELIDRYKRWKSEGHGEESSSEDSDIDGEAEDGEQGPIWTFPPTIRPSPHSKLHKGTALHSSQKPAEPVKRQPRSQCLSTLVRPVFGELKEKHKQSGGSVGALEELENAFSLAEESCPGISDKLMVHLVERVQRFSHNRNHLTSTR
Chain of PIK3R4 (Q99570 whole entry): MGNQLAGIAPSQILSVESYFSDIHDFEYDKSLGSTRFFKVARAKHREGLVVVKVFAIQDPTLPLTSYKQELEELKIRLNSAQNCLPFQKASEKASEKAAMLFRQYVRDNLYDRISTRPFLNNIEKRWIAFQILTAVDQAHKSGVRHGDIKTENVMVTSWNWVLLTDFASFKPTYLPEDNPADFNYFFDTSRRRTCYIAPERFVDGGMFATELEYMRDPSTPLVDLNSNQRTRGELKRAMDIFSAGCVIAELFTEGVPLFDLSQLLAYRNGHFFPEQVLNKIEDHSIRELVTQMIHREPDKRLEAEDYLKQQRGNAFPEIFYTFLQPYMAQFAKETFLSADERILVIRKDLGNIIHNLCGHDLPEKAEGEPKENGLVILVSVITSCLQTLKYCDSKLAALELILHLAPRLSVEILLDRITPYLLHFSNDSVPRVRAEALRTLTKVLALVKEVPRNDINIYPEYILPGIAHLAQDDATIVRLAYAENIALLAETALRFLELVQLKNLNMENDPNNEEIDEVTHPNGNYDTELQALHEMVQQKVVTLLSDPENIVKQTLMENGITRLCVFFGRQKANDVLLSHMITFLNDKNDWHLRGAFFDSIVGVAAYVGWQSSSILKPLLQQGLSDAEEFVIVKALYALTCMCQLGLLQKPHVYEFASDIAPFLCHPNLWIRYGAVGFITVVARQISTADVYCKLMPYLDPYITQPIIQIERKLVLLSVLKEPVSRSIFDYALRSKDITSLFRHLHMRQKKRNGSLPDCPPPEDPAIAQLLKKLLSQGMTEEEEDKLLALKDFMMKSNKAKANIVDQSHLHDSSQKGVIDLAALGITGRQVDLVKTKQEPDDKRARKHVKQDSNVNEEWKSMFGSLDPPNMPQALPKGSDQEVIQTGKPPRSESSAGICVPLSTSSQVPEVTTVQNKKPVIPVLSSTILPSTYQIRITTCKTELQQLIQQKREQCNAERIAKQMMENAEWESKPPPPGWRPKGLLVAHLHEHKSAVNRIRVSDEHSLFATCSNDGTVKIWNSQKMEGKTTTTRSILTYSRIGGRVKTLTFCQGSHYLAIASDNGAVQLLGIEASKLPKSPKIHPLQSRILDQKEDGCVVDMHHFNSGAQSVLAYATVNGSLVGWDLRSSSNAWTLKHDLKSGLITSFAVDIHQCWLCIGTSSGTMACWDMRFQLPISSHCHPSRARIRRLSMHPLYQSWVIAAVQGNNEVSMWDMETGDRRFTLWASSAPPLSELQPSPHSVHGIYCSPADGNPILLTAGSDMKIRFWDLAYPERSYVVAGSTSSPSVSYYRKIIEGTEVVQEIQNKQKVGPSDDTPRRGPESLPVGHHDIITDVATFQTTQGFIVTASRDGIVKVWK

In the case of `CCc1cnn2c(NCc3ccc[n+]([O-])c3)cc(N3CCCC[C@H]3CCO)nc12` [dinaciclib], the pIC50 in test [1], in test [2], in test [3] and in test [4] was under 4.52 in each case.
For the compound `O=C(NCCNC(=O)c1cc(Nc2cc(C3CC3)[nH]n2)nc(N2CCN(Cc3ccc(S(=O)(=O)F)cc3)CC2)n1)OC1CC/C=C/CCC1` (stereo unspecified), the pIC50 in test [5] (cell material: Jurkat cells) was 6.6; in test [5] (cell material: Jurkat lysate), under 4.52; in test [6], under 4.52; in test [7] (cell material: Lysate mix), under 4.52.
For the compound `CC#CC(=O)Nc1ccc2ncnc(Nc3cccc(Br)c3)c2c1` [EKI-785], the negative-log IC50 (pIC50) is under 4.52 in test [1], 4.64 in test [2], under 4.52 in test [3] and under 4.52 in test [4].
On to `C#CCNC(=O)c1cc(Nc2cc(C3CC3)[nH]n2)nc(N2CCN(Cc3ccc(S(=O)(=O)F)cc3)CC2)n1`, for which the pIC50 in test [5] (cell material: Jurkat cells) was 6.05; in test [5] (cell material: Jurkat lysate) it was under 4.52; in test [6], 4.69; in test [7] (cell material: Jurkat lysate), 6.59.
